For data set [1], the system named is P-gp and MRP2. The data set is described as follows: Inhibition transport study: GM with ciclosporin (P-gp and MRP2 inhibitor) across Caco-2 cells monolayer. The class given is in vitro ADME, Human. The following applies: for Papp A→B at 4 h / Papp B→A at 4 h / efflux ratio at 4 h / Papp A→B / Papp B→A / efflux ratio: human, Caco-2; for Papp A→B at 4 h / Papp B→A at 4 h / Papp A→B / Papp B→A: GM + ciclosporin (10 μmol), mean ± SEM, n = 3; for Papp A→B at 4 h / Papp A→B: apical-to-basolateral; for Papp B→A at 4 h / Papp B→A: basolateral-to-apical; for efflux ratio at 4 h / efflux ratio: GM + ciclosporin, read-out: efflux ratio γ (Papp BL-AP / Papp AP-BL); for decrease of efflux ratio γ: GM + ciclosporin compared with GM. As for the experimental part:
(§1) As efflux transporters (P-gp and MRP2) are expressed on the apical side of Caco-2 cells, the absorption or efflux transport of indole alkaloids across this model was investigated in the presence of efflux transporters inhibitors. A selective P-gp inhibitor, verapamil (50 μmol), was added to GM. 10 μmol ciclosporin (a P-gp and MRP2 inhibitor) was also added to GM. The control group was set as well. After the preincubation, the different mixes were performed in Caco-2 cells monolayer. Transport studies were undertaken as mentioned above in the absorptive direction (AP-BL) and the efflux direction (BL-AP), separately. The samples were taken at 0, 1, 2, 3, and 4 h for LC-MS/MS analysis. The absorption and efflux transport apparent permeability (Papp) of indole alkaloids were determined.
(§2) All experiments were run in triplicate. […] The apparent permeability coefficients (Papp) for both the absorptive direction (AP→BL) and the efflux direction (BL→AP) studies were calculated according to the following:(3) Papp=dQ/dt/A×C0, where dQ/dt (μg·min^−1) is the drug permeation rate, A (cm^2) is the filter surface area, and C0 (μg·mL^−1) is the initial concentration in the donor chamber at t = 0 min.
(§3) The efflux ratio (γ) was calculated with the following equation:(4) γ=PappBL-AP/PappAP-BL.
(§4) The γ values are used to assess the effect of efflux transporters on the test compounds in the presence and absence of efflux transporters inhibitors.
On the technique in general: Passage across Caco-2 layers is used to estimate intestinal permeability.

Data set [2] has as its system Caco-2 cells monolayer. The data set is described as follows: Bidirectional transport of indole alkaloids from GE and GM extracts across Caco-2 cells monolayer. Type of data set: in vitro ADME, Human. The following applies: for efflux ratio γ (Papp BL-AP / Papp AP-BL): GM without inhibitor; for decrement of absorbance percentage: GM (GE combined with MP) versus GE sample; for efflux Papp relative to absorptive Papp: GM sample. As for the experimental part: (§5) Human colon adenocarcinoma cell lines (Caco-2) were obtained from the cell bank of Chinese Academy of Sciences (Beijing, China). Cells were routinely grown in DMEM supplemented with 10% (v/v) fetal bovine serum, 1% (v/v) glutamine, 1% (v/v) nonessential amino acid solution, and 100 U/mL penicillin-streptomycin solution under a humidified atmosphere of 5% CO2 at 37°C. The medium was replaced every 2 days after incubation. After reaching 80% confluence, cells were passaged at a split ratio of 1 : 5, using 0.05% trypsin-EDTA. For the transport experiments, the cells of passages were seeded at a density of 1.0 × 10^6 cells/cm^2 on permeable polycarbonate inserts in 6-well tissue culture plates (Transwell Polycarbonate Membrance Insert 3414, Corning, USA), which has a surface area of 4.2 cm^2. Culture medium was changed every two days for 14 days and daily thereafter for the next 7 days. In our culture condition, cells monolayer, after seeding approximately between 19 and 21 days, usually was available for transport experiments.
(§6) The extracts, including GE and GM, were freshly prepared to the desired final concentration in DMSO. The final concentrations of DMSO in the incubation system were controlled within 0.1% (v/v) in all subsequent experiments. All transport experiments were conducted at 37°C unless specified otherwise. Transport of indole alkaloids across the Caco-2 cells monolayer was studied using monolayer of 19–21 days after seeding. Before the experiment, the monolayer was washed twice and preincubated with the blank HBSS for 1 h. Thereafter the HBSS solution on both sides of the cells monolayer was aspirated.
(§7) Transport studies were conducted in the absorptive direction (apical- (AP-) basolateral (BL)) and the efflux direction (BL-AP), separately. For determination of AP to BL transport, 2.5 mL of sample solutions was added to the AP side, respectively, and 2.5 mL of blank HBSS was added to the BL side. For determination of BL to AP transport, 2.5 mL of sample solutions was added to the BL side, respectively, and 2.5 mL of blank HBSS was added to the AP side. The cells monolayer was then put into a shaker at 50 rpm during the transport process. 400 μL of samples was taken for LC-MS/MS analysis at 0, 1, 2, 3, and 4 h after incubation, followed by an immediate replacement of 400 μL of the same solutions. At the end of the transport experiment, integrity of the monolayer was monitored by TEER value.
(§8) 400 μL of samples obtained from the Caco-2 cells transport assays was dried under nitrogen, and the residues were dissolved in 800 μL of 50% methanol. Followed by centrifugation at 12,000 rpm for 15 min, the supernatants were directly analyzed with UPLC-ESI-MS/MS. Chromatography-mass spectrum conditions were set as described above. The method researches of LC-MS/MS were similar to those described previously. Regression equations of gelsemine, humantenidine, koumine, gelsenicine, gelsevirine, and humantenine were Y = 23675X − 2864 (r = 0.9995), Y = 66331X + 13558 (r = 0.9995), Y = 6268X − 1503 (r = 0.9996), Y = 91160X − 10147 (r = 0.9998), Y = 32116X − 3951 (r = 0.9990), and Y = 36977X + 13830 (r = 0.9994), respectively.
as §2, §3

Assay in data set [3]: as above
Type of data set: in vitro ADME, Human. Particulars: human; for efflux ratio at 4 h / efflux ratio: Caco-2, GM without inhibitor, read-out: efflux ratio γ (Papp BL-AP / Papp AP-BL); for Papp A→B at 4 h / Papp B→A at 4 h / Papp A→B / Papp B→A: Caco-2, GM (control group), mean ± SEM, n = 3; for Papp A→B at 4 h / Papp A→B: apical-to-basolateral; for Papp B→A at 4 h / Papp B→A: basolateral-to-apical. How it is done: as §5, §6, §7, §8, §2, §3

Data set [4] has as its target T1, P-gp (Homo sapiens, UniProt P08183).
T1 construct: endogenous in cells; host or cells: Caco-2 cells (cell bank of Chinese Academy of Sciences)
As to the kind of experiment: Inhibition transport study: GM with verapamil (P-gp inhibitor) across Caco-2 cells monolayer. Type of data set: in vitro ADME. Particulars: for Papp A→B at 4 h / Papp B→A at 4 h / efflux ratio at 4 h / Papp A→B / Papp B→A / efflux ratio: human, Caco-2; for Papp A→B at 4 h / Papp B→A at 4 h / Papp A→B / Papp B→A: GM + verapamil (50 μmol), mean ± SEM, n = 3; for Papp A→B at 4 h / Papp A→B: apical-to-basolateral; for Papp B→A at 4 h / Papp B→A: basolateral-to-apical; for efflux ratio at 4 h / efflux ratio: GM + verapamil, read-out: efflux ratio γ (Papp BL-AP / Papp AP-BL); for decrease of efflux ratio γ: GM + verapamil compared with GM. How it is done: as §1, §2, §3, §4

T1 sequence (P08183 whole entry): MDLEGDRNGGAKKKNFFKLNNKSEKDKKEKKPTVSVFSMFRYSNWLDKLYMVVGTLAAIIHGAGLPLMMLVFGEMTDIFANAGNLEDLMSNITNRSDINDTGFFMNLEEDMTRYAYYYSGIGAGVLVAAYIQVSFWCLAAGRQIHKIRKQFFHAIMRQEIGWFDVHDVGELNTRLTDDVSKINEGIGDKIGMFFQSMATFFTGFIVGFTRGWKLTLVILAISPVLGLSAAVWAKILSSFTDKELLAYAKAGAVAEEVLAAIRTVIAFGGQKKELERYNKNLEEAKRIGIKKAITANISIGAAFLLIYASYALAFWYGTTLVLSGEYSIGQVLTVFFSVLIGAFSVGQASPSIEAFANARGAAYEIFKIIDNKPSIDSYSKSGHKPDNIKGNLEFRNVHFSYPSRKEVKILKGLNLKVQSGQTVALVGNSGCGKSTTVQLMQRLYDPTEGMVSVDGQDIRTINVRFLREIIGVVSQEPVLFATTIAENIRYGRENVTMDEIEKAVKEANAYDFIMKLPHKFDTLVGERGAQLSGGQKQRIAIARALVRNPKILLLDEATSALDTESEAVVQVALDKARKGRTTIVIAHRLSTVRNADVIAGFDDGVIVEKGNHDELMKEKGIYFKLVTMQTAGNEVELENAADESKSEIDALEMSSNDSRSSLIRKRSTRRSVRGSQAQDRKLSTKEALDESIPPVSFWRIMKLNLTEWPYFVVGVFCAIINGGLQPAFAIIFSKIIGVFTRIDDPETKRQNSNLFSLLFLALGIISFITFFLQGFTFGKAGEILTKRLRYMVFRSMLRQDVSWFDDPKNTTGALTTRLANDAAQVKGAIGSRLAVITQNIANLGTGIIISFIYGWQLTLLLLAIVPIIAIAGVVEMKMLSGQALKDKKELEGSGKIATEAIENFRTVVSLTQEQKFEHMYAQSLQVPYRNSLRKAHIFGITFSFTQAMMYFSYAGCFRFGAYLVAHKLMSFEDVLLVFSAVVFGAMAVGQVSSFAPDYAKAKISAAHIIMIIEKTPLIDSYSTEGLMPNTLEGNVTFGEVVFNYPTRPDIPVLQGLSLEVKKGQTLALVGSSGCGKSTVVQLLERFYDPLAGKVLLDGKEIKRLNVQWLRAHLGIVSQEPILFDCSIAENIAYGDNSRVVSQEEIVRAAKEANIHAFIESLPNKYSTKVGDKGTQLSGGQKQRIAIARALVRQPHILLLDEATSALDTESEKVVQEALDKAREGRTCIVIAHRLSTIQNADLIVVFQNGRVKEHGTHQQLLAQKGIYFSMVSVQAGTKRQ

As a reminder, the Papp A→B is the apparent permeability from the apical to the basolateral side of a cell layer. One may read the Papp B→A as how fast a substance crosses the layer from the basolateral side. For `C=C[C@]12CN(C)[C@@H]3[C@H]4CO[C@H](C[C@H]41)[C@]1(C(=O)Nc4ccccc41)[C@@H]32` [Gelsemine, gelsemine], in data set [1], the apparent permeability from apical to basolateral (Papp A→B) at 4 h was 35.6 ± 7.63 ×10⁻⁶ cm/s, the Papp B→A at 4 h was 39.1 ± 8.91 ×10⁻⁶ cm/s and the efflux ratio at 4 h is 1.1. Further, in data set [2], the “efflux ratio γ (Papp BL-AP / Papp AP-BL)” value came out at 1.07. Further, in data set [3], the efflux ratio at 4 h is about 1, the apical-to-basolateral permeability (Papp A→B) at 4 h was determined as 6.83 ± 2.64 ×10⁻⁶ cm/s and the Papp B→A at 4 h is 7.33 ± 2.77 ×10⁻⁶ cm/s. Moreover, in data set [4], the apparent permeability from apical to basolateral (Papp A→B) at 4 h is 30.3 ± 7.45 ×10⁻⁶ cm/s, the apparent permeability from basolateral to apical (Papp B→A) at 4 h came to 33.2 ± 8 ×10⁻⁶ cm/s and the efflux ratio at 4 h was 1.09.
`CCC1=N[C@H]2C[C@@]3(C(=O)N(OC)c4ccccc43)[C@H]3C[C@@H]1[C@@H]2CO3` [Gelsenicine, gelsenicine]: in data set [1], the “decrease of efflux ratio γ” value is reported as 40.59%, the Papp A→B at 4 h is 101 ± 28.4 ×10⁻⁶ cm/s, the Papp B→A at 4 h is 143 ± 10.8 ×10⁻⁶ cm/s and the efflux ratio at 4 h came to 1.42. Further, the “decrement of absorbance percentage” value in data set [2] (apical to basolateral) is “about 12%”. In data set [2], the “efflux Papp relative to absorptive Papp” value is “approximately 2.0 times” and the “efflux ratio γ (Papp BL-AP / Papp AP-BL)” value amounted to 2.39. Besides, in data set [3], the efflux ratio at 4 h was over 2, the Papp A→B at 4 h is 2.8 ± 0.11 ×10⁻⁶ cm/s and the apparent permeability from basolateral to apical (Papp B→A) at 4 h came out at 6.69 ± 1.35 ×10⁻⁶ cm/s. Moreover, in data set [4], the “decrease of efflux ratio γ” value is listed as 41.42%, the apical-to-basolateral permeability (Papp A→B) at 4 h was found to be 86.6 ± 15.8 ×10⁻⁶ cm/s, the apparent permeability from basolateral to apical (Papp B→A) at 4 h is 122 ± 26.1 ×10⁻⁶ cm/s and the efflux ratio at 4 h was 1.4.
As for `C=CC12CN(C)C3C4COC(CC41)C1(C(=O)N(OC)c4ccccc41)C32` (centres unmarked) [Gelsevirine, gelsevirine], in data set [1], the “decrease of efflux ratio γ” value is given as 34.00%, the Papp A→B is 464 ± 93.8 ×10⁻⁶ cm/s, the apparent permeability from basolateral to apical (Papp B→A) came out at 614 ± 56.8 ×10⁻⁶ cm/s and the efflux ratio turned out to be 1.32. For the same compound, the “decrement of absorbance percentage” value in data set [2] (apical to basolateral) is given as “over 3%”. Further, in data set [2], the “efflux Papp relative to absorptive Papp” value is “approximately 2.0 times” and the “efflux ratio γ (Papp BL-AP / Papp AP-BL)” value is 2.00. Besides, in data set [3], the efflux ratio is over 2, the Papp A→B was found to be 6.33 ± 2.31 ×10⁻⁶ cm/s and the Papp B→A was 12.7 ± 2.67 ×10⁻⁶ cm/s. In data set [4], the “decrease of efflux ratio γ” value stood at 36.00%, the Papp A→B turned out to be 392 ± 58.1 ×10⁻⁶ cm/s, the Papp B→A amounted to 503 ± 93 ×10⁻⁶ cm/s and the efflux ratio is 1.28.
With `CCC1=NC2CC3(C(=O)N(OC)c4ccccc43)C3OCC2C1C3O` (centres unmarked) [Humantenidine, humantenidine], in data set [1], the “decrease of efflux ratio γ” value is given as 42.32%, the Papp A→B is 4.48 ± 1.06 ×10⁻⁶ cm/s, the Papp B→A amounted to 7.57 ± 0.36 ×10⁻⁶ cm/s and the efflux ratio came out at 1.69. Moreover, the “absorbance percentage, rank among all indole alkaloids” value in data set [2] (GE sample, apical to basolateral, during 4 h) is on record as “highest”. Moreover, in data set [2], the “efflux Papp relative to absorptive Papp” value is listed as “approximately 2.0 times” and the “efflux ratio γ (Papp BL-AP / Papp AP-BL)” value was 2.93. For the same compound, in data set [3], the efflux ratio was over 2, the apical-to-basolateral permeability (Papp A→B) is 0.14 ± 0.044 ×10⁻⁶ cm/s and the Papp B→A came out at 0.41 ± 0.05 ×10⁻⁶ cm/s. In addition, in data set [4], the “decrease of efflux ratio γ” value is 43.69%, the apparent permeability from apical to basolateral (Papp A→B) came out at 3.14 ± 1.19 ×10⁻⁶ cm/s, the Papp B→A was 6.17 ± 0.57 ×10⁻⁶ cm/s and the efflux ratio is 1.65.
For `C/C=C1\CN(C)[C@H]2C[C@@]3(C(=O)N(OC)c4ccccc43)[C@H]3C[C@@H]1[C@@H]2CO3` [Humantenine, humantenine], in data set [1], the “decrease of efflux ratio γ” value was 15.07%, the apical-to-basolateral permeability (Papp A→B) worked out at 515 ± 101 ×10⁻⁶ cm/s, the Papp B→A worked out at 637 ± 90.1 ×10⁻⁶ cm/s and the efflux ratio came out at 1.24. The “decrement of absorbance percentage” value in data set [2] (apical to basolateral) is “about 12%”. For the same compound, in data set [3], the efflux ratio was 1.46, the apical-to-basolateral permeability (Papp A→B) was 6.93 ± 1.59 ×10⁻⁶ cm/s and the apparent permeability from basolateral to apical (Papp B→A) stood at 9.87 ± 1.75 ×10⁻⁶ cm/s. In addition, in data set [4], the “decrease of efflux ratio γ” value is reported as 8.90%, the Papp A→B came to 437 ± 71.2 ×10⁻⁶ cm/s, the apparent permeability from basolateral to apical (Papp B→A) is 580 ± 109 ×10⁻⁶ cm/s and the efflux ratio was 1.33.
As to `C=C[C@@]12CN(C)[C@H]3C[C@]14C(=Nc1ccccc14)[C@H]1C[C@@H]2[C@@H]3CO1` [Koumine, koumine], in data set [1], the Papp A→B was 440 ± 93.3 ×10⁻⁶ cm/s, the Papp B→A worked out at 524 ± 91.5 ×10⁻⁶ cm/s and the efflux ratio is 1.19. In addition, in data set [2], the “efflux ratio γ (Papp BL-AP / Papp AP-BL)” value is given as 1.13. Further, in data set [3], the efflux ratio is about 1, the Papp A→B was 11.8 ± 4.01 ×10⁻⁶ cm/s and the Papp B→A was 13.4 ± 3.84 ×10⁻⁶ cm/s. Besides, in data set [4], the apparent permeability from apical to basolateral (Papp A→B) stood at 348 ± 67.4 ×10⁻⁶ cm/s, the apparent permeability from basolateral to apical (Papp B→A) was found to be 416 ± 80.5 ×10⁻⁶ cm/s and the efflux ratio worked out at 1.19.

Values taken from paper PMC5662840, “Effect of Gelsemium elegans and Mussaenda pubescens, the Components of a Detoxification Herbal Formula, on Disturbance of the Intestinal Absorptions of Indole Alkaloids in Caco-2 Cells” (Evidence-based Complementary and Alternative Medicine : eCAM, 2017).
